Test results as given in patent US10793575B2, “Oxoisoquinoline derivatives” (CARNA BIOSCIENCES, INC., priority 2016, dated 2020).
pIC50: −log10 of the molar value.

What was measured:
OCI-Ly10 cells = experiment: Proliferation-Inhibitory Test Against Diffuse Large-Cell B-Cell Lymphoma OCI-Ly10 Strain; assay type: cell-based; conditions: Homo sapiens, 96 hours, alamarBlue
Protocol: OCI-Ly10 cells were cultured in IMDM medium (Iscove's Modified Dulbecco's Medium, Manufactured by Thermo Fisher Scientific Inc., hereinafter “medium”) containing 20% Fetal bovine serum and 1% penicillin-streptomycin (Nacalai Tesque, Inc.) in a 5% CO2 incubator. OCI-Ly10 cells were seeded to 96-well plate (20000 cells/well), compounds diluted with medium were added with final concentrations of 0.9 nM to 30000 nM (Final DMSO concentration, 0.3%), incubated for 96 hours and alamorBlue reagent (Thermo Fisher Scientific Inc.) was added.

dephosphorylated BTK = dephosphorylated BTK (Homo sapiens (Human), UniProt Q06187); experiment: BTK Activity Inhibition Test (mobility shift assay); assay type: biochemical; conditions: 200 μM ATP, read-out: Inhibitory Activity on BTK
dephosphorylated BTK, sequence (Q06187 whole entry): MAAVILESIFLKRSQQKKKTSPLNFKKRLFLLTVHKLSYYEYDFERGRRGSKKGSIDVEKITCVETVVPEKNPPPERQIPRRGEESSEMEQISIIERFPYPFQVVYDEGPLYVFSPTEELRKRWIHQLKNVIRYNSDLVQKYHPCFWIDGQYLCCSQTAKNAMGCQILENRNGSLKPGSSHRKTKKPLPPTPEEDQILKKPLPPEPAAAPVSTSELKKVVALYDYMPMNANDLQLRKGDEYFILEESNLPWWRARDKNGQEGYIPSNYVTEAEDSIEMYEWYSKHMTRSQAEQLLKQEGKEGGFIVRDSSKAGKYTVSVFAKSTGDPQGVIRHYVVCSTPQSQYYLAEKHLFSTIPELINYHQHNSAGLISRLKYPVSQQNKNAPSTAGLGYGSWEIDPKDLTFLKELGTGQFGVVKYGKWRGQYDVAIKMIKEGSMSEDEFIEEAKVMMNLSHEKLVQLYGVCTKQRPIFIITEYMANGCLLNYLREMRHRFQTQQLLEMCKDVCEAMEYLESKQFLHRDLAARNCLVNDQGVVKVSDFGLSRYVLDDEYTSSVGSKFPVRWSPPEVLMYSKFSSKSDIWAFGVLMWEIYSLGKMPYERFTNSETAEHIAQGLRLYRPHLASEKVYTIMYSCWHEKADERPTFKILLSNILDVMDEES
Protocol: Dephosphorylated BTK was obtained by adding λ protein phosphatase (manufactured by New England BioLabs Inc., Code No. P0753S) and MnCl2 at 10 U/μg and 2 mM, respectively, to biotinylated BTK protein BTN-BTK (Manufactured by Carna Biosciences, Inc.) enzyme solution, reacting the mixture at 4° C. overnight, and removing of λ protein phosphatase by anti […]-tag antibody agarose gel chromatography, followed by buffer exchange using a 10DG Desalting Column.
The kinase activity was measured using QuickScout Screening Assist (trade mark) MSA (commercially available kit manufactured by Carna Biosciences, Inc.) by mobility shift assay (MSA) method. The substrate of the kinase reaction was an FITC-labeled SRCtide peptide included in the kit. An assay buffer [20 mM HEPES, 0.01% Triton X-100 (Trade mark), 2 mM dithiothreitol, pH 7.5] was used and adjusted at 4 μM substrate, 20 mM MgCl2 and 200 μm ATP to obtain a substrate mixture solution. The enzyme solution was also prepared by diluting the dephosphorylated BTK to 0.46 nM using the assay buffer. The 10 mM solution of the test compound in DMSO was further diluted with DMSO to 10 levels of the concentration (0.00003 mM, 0.0001 mM, 0.0003 mM, 0.001 mM, 0.003 mM, 0.01 mM, 0.03 mM, 0.1 mM, 0.3 mM, 1 mM), each of which was subjected to a 25-fold dilution with the assay buffer to obtain the drug solutions (4% DMSO solutions). 5 μL of the drug solution or a control solution (4% DMSO-assay buffer), 5 μL of the substrate mixture solution, and 10 μL of the enzyme solution were mixed in the wells of a polypropylene 384-well plate and allowed to react at room temperature for 2 hours, and then quenched by adding 60 μL of the termination buffer included in the kit. Subsequently, the quantities of the substrates (S) and the phosphorylated substrate (P) in the reaction solution were measured using LabChip EZ Reader II system (manufactured by Caliper Life Sciences) according to the protocol of the assay kit.
(§1) The heights of the peaks of the isolated substrate and the phosphorylated substrate were represented as S and P, respectively, and a blank which contained the assay buffer instead of the enzyme solution was also measured.
(§2) The inhibition rate (%) of the test compound was calculated according to the following equation; Inhibition rate (%)=(1−(C−A)/(B−A))×100 • wherein, A, B and C represent P/(P+S) of the blank well, P/(P+S) of the control well and P/(P+S) of the compound-containing well, respectively.
(§3) The IC50 value was calculated via a regression analysis of the inhibition rate (%) and the test compound concentration (logarithmic value).

[1] = molecular target: C481S mutant BTK [BTK(C481S)] (Homo sapiens (Human), UniProt Q06187, C481S); experiment: C481S Mutant BTK Inhibitory Activity Test (mobility shift assay); assay type: biochemical; conditions: for pIC50: C481S mutant BTK, 100 μM ATP; for C481S mutation-resistance: IC50[BTK(C481S)]/IC50[BTK(WT)]
C481S mutant BTK [BTK(C481S)], sequence (Q06187 whole entry C481S): as the sequence (Q06187 whole entry) above, with C481S counted along it
Protocol: (§4) The kinase activity was measured using QuickScout Screening Assist (trademark) MSA (commercially available kit manufactured by Carna Biosciences, Inc.) by mobility shift assay (MSA) method. The substrate of the kinase reaction was an FITC-labeled SRCtide peptide included in the kit. […] The 10 mM solution of the test compound in DMSO was further diluted with DMSO to 10 levels of the concentration (0.00003 mM, 0.0001 mM, 0.0003 mM, 0.001 mM, 0.003 mM, 0.01 mM, 0.03 mM, 0.1 mM, 0.3 mM, 1 mM), each of which was subjected to a 25-fold dilution with the assay buffer to obtain the drug solutions (4% DMSO solutions).
(§5) 5 μL of the drug solution or a control solution (4% DMSO-assay buffer), 5 μL of the substrate mixture solution, and 10 μL of the enzyme solution were mixed in the wells of a polypropylene 384-well plate and allowed to react at room temperature for 1 hour, and then quenched by adding 60 μL of the termination buffer included in the kit. Subsequently, the quantities of the substrates (S) and the phosphorylated substrate (P) in the reaction solution were measured using LabChip EZ Reader II system (manufactured by Caliper Life Sciences) according to the protocol of the assay kit.
as §1, §2, §3

wild type BTK [BTK(WT)] = wild type BTK [BTK(WT)] (Homo sapiens (Human), UniProt Q06187); experiment: C481S Mutant BTK Inhibitory Activity Test, wild type BTK (mobility shift assay); assay type: biochemical; conditions: 120 μM ATP
wild type BTK [BTK(WT)], sequence (Q06187 whole entry): as the sequence (Q06187 whole entry) above
Protocol: as §4, §5, §1, §2, §3

| SMILES | pIC50 (OCI-Ly10 cells) | pIC50 (dephosphorylated BTK) | pIC50 [1] | C481S mutation-resistance [1] | pIC50 (wild type BTK [BTK(WT)]) |
| --- | --- | --- | --- | --- | --- |
| Nc1nc(-c2cccc(-n3ccc4cc(C5CC5)cc(F)c4c3=O)c2CO)c2cc(-c3cccc(F)c3)[nH]c2n1 [Example 29, 2-{3-[2-amino-6-(3-fluorophenyl)-7H-pyrrolo[2,3-d]pyrimidin-4-yl]-2-(hydroxymethyl)phenyl}-6-cyclopropyl-8-fluoroisoquinolin-1(2H)-one] | 6.48 | > 8.00 |  |  |  |
| Cn1cc(-c2nc3c(-c4cccc(-n5ccc6cc(C7CC7)cc(F)c6c5=O)c4CO)nc(N)nc3[nH]2)cn1 [Example 31, 2-{3-[2-amino-8-(1-methyl-1H-pyrazol-4-yl)-9H-purin-6-yl]-2-(hydroxymethyl)phenyl}-6-cyclopropyl-8-fluoroisoquinolin-1(2H)-one] | 7.35 | > 8.00 |  |  |  |
| Nc1nc(-c2cccc(-n3ccc4cc(C5CC5)cc(F)c4c3=O)c2CO)c2cc(-c3ccccc3F)[nH]c2n1 [Example 33, 2-{3-[2-amino-6-(2-fluorophenyl)-7H-pyrrolo[2,3-d]pyrimidin-4-yl]-2-(hydroxymethyl)phenyl}-6-cyclopropyl-8-fluoroisoquinolin-1(2H)-one] | 6.71 | > 8.00 |  |  |  |
| Nc1nc(-c2cccc(-n3ccc4cc(C5CC5)cc(F)c4c3=O)c2CO)c2cc(-c3ccc(F)cc3)[nH]c2n1 [Example 34, 2-{3-[2-amino-6-(4-fluorophenyl)-7H-pyrrolo[2,3-d]pyrimidin-4-yl]-2-(hydroxymethyl)phenyl}-6-cyclopropyl-8-fluoroisoquinolin-1(2H)-one] | 6.99 | > 8.00 |  |  |  |
| Nc1nc(-c2cccc(-n3ccc4cc(C5CC5)cc(F)c4c3=O)c2CO)c2cc(-c3ccc(F)cc3F)[nH]c2n1 [Example 35, 2-{3-[2-amino-6-(2,4-difluorophenyl)-7H-pyrrolo[2,3-d]pyrimidin-4-yl]-2-(hydroxymethyl)phenyl}-6-cyclopropyl-8-fluoroisoquinolin-1(2H)-one] | 6.37 | > 8.00 |  |  |  |
| Nc1nc(-c2cccc(-n3ccc4cc(C5CC5)cc(F)c4c3=O)c2CO)c2cc(-c3ccc(F)c(F)c3)[nH]c2n1 [Example 36, 2-{3-[2-amino-6-(3,4-difluorophenyl)-7H-pyrrolo[2,3-d]pyrimidin-4-yl]-2-(hydroxymethyl)phenyl}-6-cyclopropyl-8-fluoroisoquinolin-1(2H)-one] | 6.35 | > 8.00 |  |  |  |
| Nc1nc(-c2cccc(-n3ccc4cc(C5CC5)cc(F)c4c3=O)c2CO)c2cc(-c3ccc(C(F)(F)F)cc3)[nH]c2n1 [Example 37, 2-(3-{2-amino-6-[4-(trifluoromethyl)phenyl]-7H-pyrrolo[2,3-d]pyrimidin-4-yl}-2-(hydroxymethyl)phenyl)-6-cyclopropyl-8-fluoroisoquinolin-1(2H)-one] | 6.30 | > 8.00 |  |  |  |
| Nc1nc(-c2cccc(-n3ccc4cc(C5CC5)cc(F)c4c3=O)c2CO)c2cc(-c3ccc(OC(F)(F)F)cc3)[nH]c2n1 [Example 38, 2-(3-{2-amino-6-[4-(trifluoromethoxy)phenyl]-7H-pyrrolo[2,3-d]pyrimidin-4-yl}-2-(hydroxymethyl)phenyl)-6-cyclopropyl-8-fluoroisoquinolin-1(2H)-one] | 6.44 | 7.00 to 8.00 |  |  |  |
| NCc1cc2c(-c3cccc(-n4ccc5cc(C6CC6)cc(F)c5c4=O)c3CO)nc(N)nc2[nH]1 [Example 39, 2-{3-[2-amino-6-(aminomethyl)-7H-pyrrolo[2,3-d]pyrimidin-4-yl]-2-(hydroxymethyl)phenyl}-6-cyclopropyl-8-fluoroisoquinolin-1(2H)-one] | 5.98 | 7.00 to 8.00 |  |  |  |
| Nc1nc(-c2cccc(-n3ccc4cc(C5CC5)cc(F)c4c3=O)c2CO)c2cc(-c3cccc(C(F)(F)F)c3)[nH]c2n1 [Example 40, 2-(3-{2-amino-6-[3-(trifluoromethyl)phenyl]-7H-pyrrolo[2,3-d]pyrimidin-4-yl}-2-(hydroxymethyl)phenyl)-6-cyclopropyl-8-fluoroisoquinolin-1(2H)-one] | 5.87 | > 8.00 |  |  |  |
| CNc1cc(-c2cc3c(-c4cccc(-n5ccc6cc(C7CC7)cc(F)c6c5=O)c4CO)nc(N)nc3[nH]2)ccn1 [Example 50, 2-(3-{2-amino-6-[2-(methylamino)pyridin-4-yl]-7H-pyrrolo[2,3-d]pyrimidin-4-yl}-2-(hydroxymethyl)phenyl)-6-cyclopropyl-8-fluoroisoquinolin-1(2H)-one] | 7.28 |  | 8.80 | 2.1 | 9.11 |
| CN(C)Cc1ccc(-c2cc3c(-c4cccc(-n5ccc6cc(C7CC7)cc(F)c6c5=O)c4CO)nc(N)nc3[nH]2)cc1 [Example 51, 2-[3-(2-amino-6-{4-[(dimethylamino)methyl]phenyl}-7H-pyrrolo[2,3-d]pyrimidin-4-yl)-2-(hydroxymethyl)phenyl]-6-cyclopropyl-8-fluoroisoquinolin-1(2H)-one] | 8.00 |  | 9.11 | 1.8 | 9.37 |
| CCN(CC)Cc1ccc(-c2cc3c(-c4cccc(-n5ccc6cc(C7CC7)cc(F)c6c5=O)c4CO)nc(N)nc3[nH]2)cc1 [Example 52, 2-[3-(2-amino-6-{4-[(diethylamino)methyl]phenyl}-7H-pyrrolo[2,3-d]pyrimidin-4-yl)-2-(hydroxymethyl)phenyl]-6-cyclopropyl-8-fluoroisoquinolin-1(2H)-one] | 7.82 |  | 9.12 | 1.8 | 9.37 |
| CN1CCN(C(=O)N2CC=C(c3cc4c(-c5cccc(-n6ccc7cc(C8CC8)cc(F)c7c6=O)c5CO)nc(N)nc4[nH]3)CC2)CC1 [Example 71, 2-(3-{2-amino-6-[1-(4-methylpiperazine-1-carbonyl)-1,2,3,6-tetrahydropyridin-4-yl]-7H-pyrrolo[2,3-d]pyrimidin-4-yl}-2-(hydroxymethyl)phenyl)-6-cyclopropyl-8-fluoroisoquinolin-1(2H)-one] |  |  | 9.24 | 1.5 | 9.41 |
| CN(C)C(=O)N1CC=C(c2cc3c(-c4cccc(-n5ccc6cc(C7CC7)cc(F)c6c5=O)c4CO)nc(N)nc3[nH]2)CC1 [Example 87, 4-{2-amino-4-[3-(6-cyclopropyl-8-fluoro-1-oxoisoquinolin-2(1H)-yl)-2-(hydroxymethyl)phenyl]-7H-pyrrolo[2,3-d]pyrimidin-6-yl}-N,N-dimethyl-5,6-dihydropyridine-1(2H)-carboxamide] |  |  | 9.02 | 1.8 | 9.28 |
| Nc1nc(-c2cccc(-n3ccc4cc(C5CC5)cc(F)c4c3=O)c2CO)c2cc(C3=CCNCC3)[nH]c2n1 [Example 93, 2-{3-[2-amino-6-(1,2,3,6-tetrahydropyridin-4-yl)-7H-pyrrolo[2,3-d]pyrimidin-4-yl]-2-(hydroxymethyl)phenyl}-6-cyclopropyl-8-fluoroisoquinolin-1(2H)-one] |  |  | 9.00 | 2.4 | 9.39 |
